# What was measured:
# Type in all cases: in vivo
# [1] = test system: blackgrass (Alopecurus myosuroides); experiment: Test B postemergence
# In short: (§1)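 Seeds were planted and sprayed preemergence with test chemical in a non-phytotoxic solvent mixture containing surfactant; postemergence plants (2 to 18 cm, 1- to 4-leaf stage) received the same formulation. Greenhouse hold 13 to 15 days, then visual rating versus untreated controls on a 0–100 scale (0 no effect, 100 complete control).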
# [2] = test system: cocklebur (Xanthium strumarium); experiment: Test B postemergence
# In short: as §1
# [3] = test system: crabgrass (Digitaria sanguinalis); experiment: Test B postemergence; conditions: Rate 125 g/ha, scale 0 to 100, 0 no effect, 100 complete control
# In short: as §1
# Nightshade = experiment: Test C preemergence
# [4] = test system: Surinam grass (Brachiaria decumbens); experiment: Test C preemergence; conditions: for Plant response rating (0 to 100), Surinam grass: Rate 500 g/ha, visual evaluation after 12 to 14 days
# In short: (§2)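 Visual 0–100 rating vs controls (0 = no effect, 100 = complete control) at 12–14 d, greenhouse. Compounds in non-phytotoxic solvent + surfactant; pre: sprayed after seeding; post: 1–4-leaf plants, 2–18 cm.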
# [5] = test system: bermudagrass (Cynodon dactylon); experiment: Test C preemergence; conditions: for Plant response rating (0 to 100 where 0 is no effect and 100 is complete control), Bermudagrass: Rate 500 g/ha, visual evaluation after 12 to 14 days
# In short: as §2
# [6] = test system: cocklebur (Xanthium strumarium); experiment: Test C preemergence; conditions: for Plant response rating (0 to 100), Cocklebur: Rate 500 g/ha, visual evaluation after 12 to 14 days
# In short: as §2
# [7] = test system: common ragweed (Ambrosia elatior); experiment: Test C preemergence; conditions: for Plant response rating (0 to 100), Ragweed, Common: Rate 500 g/ha, visual evaluation after 12 to 14 days
# In short: as §2
# corn (Zea mays) = experiment: Test C preemergence; conditions: for Plant response rating (0 to 100), Corn: Rate 500 g/ha, visual evaluation after 12 to 14 days
# In short: as §2
# [8] = test system: crabgrass (Digitaria sanguinalis); experiment: Test C preemergence; conditions: for Plant response rating (0 to 100), Crabgrass: Rate 500 g/ha, visual evaluation after 12 to 14 days
# In short: as §2
# [9] = test system: giant foxtail (Setaria faberii); experiment: Test C preemergence; conditions: for Plant response rating (0 to 100), Foxtail, Giant: Rate 500 g/ha, visual evaluation after 12 to 14 days
# In short: as §2
# [10] = test system: goosegrass (Eleusine indica); experiment: Test C preemergence; conditions: for Plant response rating (0 to 100), Goosegrass: Rate 500 g/ha, visual evaluation after 12 to 14 days
# In short: as §2
# [11] = test system: johnsongrass (Sorghum halepense); experiment: Test C preemergence; conditions: for Plant response rating (0 to 100), Johnsongrass: Rate 500 g/ha, visual evaluation after 12 to 14 days
# In short: as §2
# kochia (Kochia scoparia) = experiment: Test C preemergence; conditions: for Plant response rating (0 to 100), Kochia: Rate 500 g/ha, visual evaluation after 12 to 14 days
# In short: as §2
# [12] = test system: lambsquarters (Chenopodium album); experiment: Test C preemergence; conditions: for Plant response rating (0 to 100), Lambsquarters: Rate 500 g/ha, visual evaluation after 12 to 14 days
# In short: as §2
# [13] = test system: morningglory (Ipomoea hederacea); experiment: Test C preemergence
# In short: as §2
# soybean (Glycine max) = experiment: Test C preemergence; conditions: for Plant response rating (0 to 100), Soybean: Rate 500 g/ha, visual evaluation after 12 to 14 days
# In short: as §2
# [14] = test system: yellow nutsedge (Cyperus esculentus); experiment: Test C preemergence; conditions: for Plant response rating (0 to 100), Nutsedge: Rate 500 g/ha, visual evaluation after 12 to 14 days
# In short: as §2
# Sunflower = experiment: Test C preemergence; conditions: Rate 250 g/ha, scale 0 to 100, 0 no effect, 100 complete control
# [15] = Rate 125 g/ha, scale 0 to 100, 0 no effect, 100 complete control
# [16] = Rate 500 g/ha, scale 0 to 100, 0 is no effect, 100 is complete control, 13 to 15 days
# [17] = Rate 250 g/ha, scale 0 to 100, 0 no effect, 100 complete control
# [18] = preemergence, Rate 62 g/ha, scale 0 to 100
# [19] = preemergence, Rate 250 g/ha, scale 0 to 100, 0 no effect, 100 complete control
structure (smiles),measurement,setting,value
CCOc1cccc(N2CCC(n3ccc(C(C)(C)C)n3)C2=O)c1 (stereo not shown) [Compound 130],"Plant response rating, Blackgrass",[1]; [15],0
same,"Plant response rating, Blackgrass",[1]; [16],20
same,"Plant response rating, Cocklebur",[2]; [15],20
same,"Plant response rating, Cocklebur",[2]; [16],50
same,"Plant response rating, Crabgrass",[3],0
same,"Plant response rating, Nightshade","Nightshade; Rate 62 g/ha, scale 0 to 100",100
same,"Plant response rating, Nightshade",Nightshade; [15],100
same,"Plant response rating, Nightshade",Nightshade; [17],100
same,"Plant response rating, Surinam grass",[4]; [15],100
same,"Plant response rating, Surinam grass",[4]; [18],100
same,"Plant response rating (0 to 100), Surinam grass",[4]; preemergence,100
same,"Plant response rating, Surinam grass",[4]; [19],100
same,"Plant response rating, Bermudagrass",[5]; [15],100
same,"Plant response rating, Bermudagrass",[5]; [18],100
same,"Plant response rating (0 to 100 where 0 is no effect and 100 is complete control), Bermudagrass",[5]; preemergence,100
same,"Plant response rating, Bermudagrass",[5]; [19],100
same,"Plant response rating, Cocklebur",[6]; [18],0
same,"Plant response rating (0 to 100), Cocklebur",[6]; preemergence,0
same,"Plant response rating, Cocklebur",[6]; [19],0
same,"Plant response rating, Ragweed, Common",[7]; [15],100
same,"Plant response rating, Ragweed, Common",[7]; [18],100
same,"Plant response rating (0 to 100), Ragweed, Common",[7]; preemergence,100
same,"Plant response rating, Ragweed, Common",[7]; [19],100
same,"Plant response rating, Corn",corn (Zea mays); [15],80
same,"Plant response rating, Corn",corn (Zea mays); [18],40
same,"Plant response rating (0 to 100), Corn",corn (Zea mays); preemergence,100
same,"Plant response rating, Corn",corn (Zea mays); [19],90
same,"Plant response rating, Crabgrass",[8]; [15],100
same,"Plant response rating, Crabgrass",[8]; [18],100
same,"Plant response rating (0 to 100), Crabgrass",[8]; preemergence,100
same,"Plant response rating, Crabgrass",[8]; [19],100
same,"Plant response rating, Foxtail, Giant",[9]; [15],100
same,"Plant response rating, Foxtail, Giant",[9]; [18],90
same,"Plant response rating (0 to 100), Foxtail, Giant",[9]; preemergence,100
same,"Plant response rating, Foxtail, Giant",[9]; [19],100
same,"Plant response rating, Goosegrass",[10]; [15],100
same,"Plant response rating, Goosegrass",[10]; [18],100
same,"Plant response rating (0 to 100), Goosegrass",[10]; preemergence,100
same,"Plant response rating, Goosegrass",[10]; [19],100
same,"Plant response rating, Johnsongrass",[11]; [15],90
same,"Plant response rating, Johnsongrass",[11]; [18],0
same,"Plant response rating (0 to 100), Johnsongrass",[11]; preemergence,100
same,"Plant response rating, Johnsongrass",[11]; [19],100
same,"Plant response rating, Kochia",kochia (Kochia scoparia); [15],100
same,"Plant response rating, Kochia",kochia (Kochia scoparia); [18],100
same,"Plant response rating (0 to 100), Kochia",kochia (Kochia scoparia); preemergence,100
same,"Plant response rating, Kochia",kochia (Kochia scoparia); [19],100
same,"Plant response rating, Lambsquarters",[12]; [15],100
same,"Plant response rating, Lambsquarters",[12]; [18],100
same,"Plant response rating (0 to 100), Lambsquarters",[12]; preemergence,100
same,"Plant response rating, Lambsquarters",[12]; [19],100
same,"Plant response rating, Morningglory",[13]; [18],70
same,"Plant response rating, Morningglory",[13]; [19],90
same,"Plant response rating, Soybean",soybean (Glycine max); [15],30
same,"Plant response rating, Soybean",soybean (Glycine max); [18],30
same,"Plant response rating (0 to 100), Soybean",soybean (Glycine max); preemergence,60
same,"Plant response rating, Soybean",soybean (Glycine max); [19],40
same,"Plant response rating, Nutsedge",[14]; [15],80
same,"Plant response rating, Nutsedge",[14]; [18],30
same,"Plant response rating (0 to 100), Nutsedge",[14]; preemergence,100
same,"Plant response rating, Nutsedge",[14]; [19],100
same,"Plant response rating, Sunflower",Sunflower,70
CCC(CC)c1ccn(C2OCN(c3cccc(OC(F)F)c3)C2=O)n1 (stereo not shown) [Compound 131],"Plant response rating, Blackgrass",[1]; [15],0
same,"Plant response rating, Blackgrass",[1]; [16],0
same,"Plant response rating, Cocklebur",[2]; [15],30
same,"Plant response rating, Cocklebur",[2]; [16],70
same,"Plant response rating, Crabgrass",[3],0
same,"Plant response rating, Nightshade","Nightshade; Rate 62 g/ha, scale 0 to 100",90
same,"Plant response rating, Nightshade",Nightshade; [15],100
same,"Plant response rating, Nightshade",Nightshade; [17],100
same,"Plant response rating, Surinam grass",[4]; [15],100
same,"Plant response rating, Surinam grass",[4]; [18],100
same,"Plant response rating (0 to 100), Surinam grass",[4]; preemergence,100
same,"Plant response rating, Surinam grass",[4]; [19],100
same,"Plant response rating, Bermudagrass",[5]; [15],100
same,"Plant response rating, Bermudagrass",[5]; [18],100
same,"Plant response rating (0 to 100 where 0 is no effect and 100 is complete control), Bermudagrass",[5]; preemergence,100
same,"Plant response rating, Bermudagrass",[5]; [19],100
same,"Plant response rating, Cocklebur",[6]; [15],0
same,"Plant response rating, Cocklebur",[6]; [18],0
same,"Plant response rating (0 to 100), Cocklebur",[6]; preemergence,30
same,"Plant response rating, Cocklebur",[6]; [19],30
same,"Plant response rating, Ragweed, Common",[7]; [15],0
same,"Plant response rating, Ragweed, Common",[7]; [18],0
same,"Plant response rating (0 to 100), Ragweed, Common",[7]; preemergence,100
same,"Plant response rating, Ragweed, Common",[7]; [19],0
same,"Plant response rating, Corn",corn (Zea mays); [15],100
same,"Plant response rating, Corn",corn (Zea mays); [18],100
same,"Plant response rating (0 to 100), Corn",corn (Zea mays); preemergence,100
same,"Plant response rating, Corn",corn (Zea mays); [19],100
same,"Plant response rating, Crabgrass",[8]; [15],100
same,"Plant response rating, Crabgrass",[8]; [18],100
same,"Plant response rating (0 to 100), Crabgrass",[8]; preemergence,100
same,"Plant response rating, Crabgrass",[8]; [19],100
same,"Plant response rating, Foxtail, Giant",[9]; [15],100
same,"Plant response rating, Foxtail, Giant",[9]; [18],90
same,"Plant response rating (0 to 100), Foxtail, Giant",[9]; preemergence,100
same,"Plant response rating, Foxtail, Giant",[9]; [19],100
same,"Plant response rating, Goosegrass",[10]; [15],100
same,"Plant response rating, Goosegrass",[10]; [18],100
same,"Plant response rating (0 to 100), Goosegrass",[10]; preemergence,100
same,"Plant response rating, Goosegrass",[10]; [19],100
same,"Plant response rating, Johnsongrass",[11]; [15],70
same,"Plant response rating, Johnsongrass",[11]; [18],30
same,"Plant response rating (0 to 100), Johnsongrass",[11]; preemergence,100
same,"Plant response rating, Johnsongrass",[11]; [19],80
same,"Plant response rating, Kochia",kochia (Kochia scoparia); [15],100
same,"Plant response rating, Kochia",kochia (Kochia scoparia); [18],100
same,"Plant response rating (0 to 100), Kochia",kochia (Kochia scoparia); preemergence,100
same,"Plant response rating, Kochia",kochia (Kochia scoparia); [19],100
same,"Plant response rating, Lambsquarters",[12]; [15],100
same,"Plant response rating, Lambsquarters",[12]; [18],100
same,"Plant response rating (0 to 100), Lambsquarters",[12]; preemergence,100
same,"Plant response rating, Lambsquarters",[12]; [19],100
same,"Plant response rating, Morningglory",[13]; [15],60
same,"Plant response rating, Morningglory",[13]; [18],0
same,"Plant response rating (0 to 100), Morningglory","[13]; preemergence, Rate 500 g/ha, visual evaluation after 12 to 14 days",90
same,"Plant response rating, Morningglory",[13]; [19],90
same,"Plant response rating, Soybean",soybean (Glycine max); [15],0
same,"Plant response rating, Soybean",soybean (Glycine max); [18],0
same,"Plant response rating (0 to 100), Soybean",soybean (Glycine max); preemergence,40
same,"Plant response rating, Soybean",soybean (Glycine max); [19],40
same,"Plant response rating, Nutsedge",[14]; [15],90
same,"Plant response rating, Nutsedge",[14]; [18],0
same,"Plant response rating (0 to 100), Nutsedge",[14]; preemergence,100
same,"Plant response rating, Nutsedge",[14]; [19],90
same,"Plant response rating, Sunflower",Sunflower,20
